From patent US20190010461A1, “HUMAN PLURIPOTENT STEM CELL-BASED SCREENING FOR SMOOTH MUSCLE CELL DIFFERENTIATION AND DISEASE” (Wisconsin Alumni Research Foundation, priority 2017, published 2019)

Experiments:
[1] = test system: NOTCH1
Method: Data are represented as mean±SD, n=3 biological replicates. *, p<0.05, student t-test. […] Cells were treated with RepSox (25 μM) or SiRNA. Comb3: Knockdown of TGFBR1, ACVR1B, and ACVR1C at the same time. Data are represented as mean±SD, n=2 biological replicates. *, p<0.05, student t-test. […] Cells were treated with RepSox (25 μM) or SiRNA. Data are represented as mean±SD, n=2 biological replicates. *, p<0.05, student t-test. […] During the smooth muscle cells differentiation, cells were treated with or without RepSox from day 10-11. […] During the smooth muscle cells differentiation, cells were treated with RepSox for 1 or 20 hours at day 12. […] Data are represented as mean±SD, n=3 biological replicates. *, p<0.05, student t-test. […] Cells were treated with RepSox and non-targeting control (NT)/SiRNA at day 10. The RNA was isolated at day 14.

[2] = test system: MYH11-Tom+ cells; experiment: Flow cytometric analysis of MYH11-Tom+ cells in SMC differentiation; assay type: cell-based, human; conditions: RepSox 25 μM, day 12-24
Method: Data are represented as mean±standard deviation (SD). […] Scale bar=1 mm. […] Scale bar=50 μm. […] Data are represented as mean±SD. Student's t-test, *: P<0.05, n=3.
FIGS. 7A-7G show the target of RepSox. […] Cells were treated with RepSox (25 μM) or SiRNA. […] Cells were treated with RepSox (25 μM) or SiRNA. […] During the smooth muscle cells differentiation, cells were treated with or without RepSox from day 10-11. […] During the smooth muscle cells differentiation, cells were treated with RepSox for 1 or 20 hours at day 12. […] Cells were treated with RepSox and non-targeting control (NT)/SiRNA at day 10. The RNA was isolated at day 14.
Optimized smooth muscle cell differentiation—Human pluripotent stem cell cells (H1) were cultured in E8 medium on a […]™-coated plate. To achieve the best differentiation results, ES cells were split using EDTA at 1:4 ratios two days before the differentiation. The cells reached 80-90% confluency two days later. At the day of the differentiation, ES cells were dissociated by ACCUTASE™ (Invitrogen) for 3-5 min at 37 ° C. The cells were plated on a […]™-coated plate at 1:4 ratios (1×10^5 cells/cm2). […] An increased CHIR99021 concentration of 3 μM decreased cell proliferation at 36 hours but increased MYH11 expression. At 36 hours, the cells were passaged and seeded on a new […]™-coated plate (1.6×10^4 cells/cm2). The low cell density is critical for the differentiation. A cell density of 1.0-4.0×10^4 cells/cm2 for different cell lines can be tested, such that 100% cell confluence will be achieved at day 6, which gives rise to the best differentiation efficiency. The cells were treated with E6T medium (E8 medium minus FGF2 but still containing 1.7 ng/ml TGF-β1) for 18 hours to induce the transient and medium level expression of MEOX1. E5F medium (E8 medium minus insulin and TGF-β1, but still containing 100 ng/ml FGF2) was used to suppress MEOX1 expression for another 5 days (days 3-8). Next, the cells were treated with E6FVR medium (E6 medium with 100 ng/ml FGF2, 50 ng/ml VEGFA, and 5 μM RESV, a NOTCH agonist) to induce SMC progenitors from day 8-12. E6R (E6 medium+5 μM RESV) medium supplemented with RepSox (25 μM), was then used to further mature SMCs from day 12 to 24. Cells were split (1×10^5 cells/cm2) at day 16 and further differentiated until day 24. The cells can be cryopreserved at day 16 or day 24. For P-SMCs, T-SMCs, and PT-SMCs, RepSox was replaced by PDGF-BB (10 ng/ml), TGF-β1 (1.7 ng/ml), or combination of PDGF-BB and TGF-β1, respectively, from day 12 to 24. From day 0-4: medium was changed every day. From day 2-24: medium was changed every other day. For day 1 and day 8-24, 1.5×volumes of medium, compared to the normal volume used in the well, were used. […]

[3] = test system: intimal hyperplasia
Description: FIG. 5A depicts the rat balloon injury experiment. H&E staining is shown. Arrowheads indicate the intima. Scale bar=200 μm. […] Scale bar=100 Neointima is highlighted. Red arrows indicate the region with high SMA expression. Yellow arrows indicate the region with low SMA expression. […] Red arrows indicate the region with high MYH11 expression. Yellow arrows indicate the region with low MYH11 expression. […] Red arrows indicate the region with high SM22α expression. Yellow arrows indicate the region with low SM22α expression. […] The “% of high expression”=ratio of “area of high expression”! “total area of intima and media”. Data are represented as mean±SD. […] Scale bar=100 μm. Neointima is highlighted.
Rat carotid artery balloon injury model and periadventitial delivery—This animal study was conducted with approval from the UW-Madison Department of Surgery Animal Care and Use Committee. Briefly, 2 mg (2 animals/group) or 10 mg (3 animals/group) of RepSox (or DMSO) dissolved in Regel (Tri-block gel) (Regel tri-block gel is described in Chen et al. “Unimolecular Micelle-Based Hybrid System for Perivascular Drug Delivery Produces Long-Term Efficacy for Neointima Attenuation in Rats,” Biomacromolecules, 2017 Jun. 14. doi: 10.1021/acs.biomac.7b00617) was applied to the outside of the injured artery segment immediately after balloon injury of the rat carotid artery. Two weeks post-surgery, arteries were collected and sectioned. The ratio of intima area versus media area and lumen area were measured by Image J.
We next examined the function of RepSox in a rat intimal hyperplasia model. In order to reduce any side effect induced by systematic drug delivery, RepSox or DMSO was dissolved in gel and then applied to the outside of the injured artery segment immediately after balloon injury of the rat carotid artery (Shi et al., 2014). Carotid arteries were collected and sectioned 14 days after surgery. […] To test the effect of RepSox, we performed qPCR analysis.

Cc1cccc(-c2n[nH]cc2-c2ccc3ncccc3n2)n1 [RepSox, RepSox (SJN 2511)]
RepSox treatment time after which increased NOTCH signaling could be detected ([1]; RepSox for 1 or 20 hours at day 12): 1 h | full-length NOTCH1 and intracellular domain (NICD) expression ([1]; treated with or without RepSox day 10-11): enhanced | efficiency of SMC differentiation (MYH11-tdTomato+) [2]: > 95% | intima/media ratio ([3]; 2 mg or 10 mg RepSox in gel periadventitially, 14 days after surgery, DMSO control 1.5): 0.5 | endothelia cell marker expression (qPCR) ([3]; injured rat carotid artery, versus DMSO): increased | apoptosis in intima (TUNEL) ([3]; versus DMSO): increased | expression of contractile proteins SMA, MYH11 and SM22α ([3]; versus DMSO): significantly increased | proliferation in intima and media layer (immunostaining) ([3]; versus DMSO): decreased proliferation in intima but not media layer
